Data taken from ChEMBL document CHEMBL6177955, “Design, synthesis and biological evaluation of Golgi-targeting anion transporters as inducers of Golgiphagy and apoptosis in cancer cells” (Eur J Med Chem, 2025).
The source made the active and inactive calls. The rule behind the calls is not given here.

Experiments:
Lipid bilayer [1] = test: Vesicular anionophoric activity in large unilamellar vesicle membrane derived from egg-yolk L-alpha-phosphatidylcholine assessed as induction of relative efflux of chloride ions in presence of rubidium (Rb+) measured up to 300 seconds by using chloride-selective electrode; conditions: time <= 300.0 sec
HCT-8 = test: Antiproliferative activity against human HCT-8 cells by MTT assay; type: functional, cell-based
HepG2 [2] = test: Induction of chloride ion influx in human HepG2 cells assessed as effect on lysosomal chloride anions at 5 to 20 uM measured after 12 hrs incubation by chloride-sensitive dye MQAE-MP based CLSM imaging analysis; type: functional, cell-based; conditions: dose 5-20 µM
HepG2 [3] = test: Induction of apoptosis in human HepG2 cells assessed as necrotic cells at 20 uM measured after 24 hrs incubation by Propidium iodide/Annexin V-FITC analysis (reference value: 1.14%); type: functional
HepG2 [4] = test: Induction of apoptosis in human HepG2 cells assessed as early apoptotic cells at 5 uM measured after 24 hrs incubation by Propidium iodide/Annexin V-FITC analysis (reference value: 2.90%); type: functional
Lipid bilayer [5] = test: Vesicular anionophoric activity in large unilamellar vesicle membrane derived from egg-yolk L-alpha-phosphatidylcholine assessed as induction of relative efflux of chloride ions in presence of potassium (K+) measured up to 300 seconds by using chloride-selective electrode; conditions: time <= 300.0 sec
Lipid bilayer [6] = test: Vesicular anionophoric activity in large unilamellar vesicle membrane derived from egg-yolk L-alpha-phosphatidylcholine assessed as induction of relative efflux of chloride ions in presence of sodium (Na+) measured up to 300 seconds by using chloride-selective electrode; conditions: time <= 300.0 sec
HepG2 [7] = test: Antiproliferative activity against human HepG2 cells by MTT assay; type: functional, cell-based
HepG2 [8] = test: Cell cycle arrest in human HepG2 cells assessed as accumulation of cells at G2/M phase at 20 uM measured after 24 hrs incubation by flow cytometric analysis; type: functional
HepG2 [9] = test: Induction of apoptosis in human HepG2 cells assessed as viable cells at 20 uM measured after 24 hrs incubation by Propidium iodide/Annexin V-FITC analysis (reference value: 90.2%); type: functional; conditions: read-out: Activity
[10] = Toxicity in mouse xenografted with human HepG2 cells assessed as creatine kinase (CK) at 5 to 10 mg/kg, ip administered once every 2 days for 21 days; type: organism-based; conditions: in vivo, 504 h, dose 5-10 mg/kg, time 21 day
HepG2 [11] = test: Antitumor activity against human HepG2 cells xenografted mouse model assessed as reduction in tumor growth inhibition at 1 mg/kg, ip administered once every 2 days for 21 days relative to control; type: functional; conditions: HepG2, 504 h, time 21 day, read-out: TGI
[12] = Toxicity in mouse xenografted with human HepG2 cells assessed as histopathological changes in spleen at 5 to 10 mg/kg, ip administered once every 2 days for 21 days by H and E staining based analysis; type: organism-based; conditions: in vivo, 504 h, dose 5-10 mg/kg, time 21 day
[13] = Toxicity in mouse xenografted with human HepG2 cells assessed as alanine aminotransferase (ALT) in serum at 5 to 10 mg/kg, ip administered once every 2 days for 21 days; type: organism-based; conditions: in vivo, 504 h, dose 5-10 mg/kg, time 21 day
[14] = Toxicity in mouse xenografted with human HepG2 cells assessed as histopathological changes in liver at 5 to 10 mg/kg, ip administered once every 2 days for 21 days by H and E staining based analysis; type: organism-based; conditions: in vivo, 504 h, dose 5-10 mg/kg, time 21 day
HepG2 [15] = test: Antitumor activity against human HepG2 cells xenografted mouse model assessed as reduction in tumor growth inhibition at 10 mg/kg, ip administered once every 2 days for 21 days relative to control; type: functional; conditions: HepG2, 504 h, time 21 day, read-out: TGI
HepG2 [16] = test: Induction of apoptosis in human HepG2 cells assessed as late apoptotic cells at 20 uM measured after 24 hrs incubation by Propidium iodide/Annexin V-FITC analysis (reference value: 5.71%); type: functional
HepG2 [17] = test: Disruption of homeostasis of chloride anions in golgi apparatus of human HepG2 cells assessed as increase in fluorescence intensity of 6-methoxy-1-(2-oxo-2-((4-sulfamoylphenyl)amino)ethyl)quinolin-1-ium Bromide measured after 12 hts by CLSM imaging analysis; type: functional, cell-based
HepG2 [18] = test: Induction of autophagosome formation in human HepG2 cells assessed as green fluorescence in mitochondria by measuring pearson co-localization at 10 uM measured after 12 hrs incubation by mCherry-LC3B assay; type: functional
HepG2 [19] = test: Induction of apoptosis in human HepG2 cells assessed as viable cells at 10 uM measured after 24 hrs incubation by Propidium iodide/Annexin V-FITC analysis (reference value: 90.2%); type: functional; conditions: read-out: Activity
[20] = Toxicity in mouse xenografted with human HepG2 cells assessed as blood urea nitrogen (BUN) at 5 to 10 mg/kg, ip administered once every 2 days for 21 days; type: organism-based; conditions: in vivo, 504 h, dose 5-10 mg/kg, time 21 day
HepG2 [21] = test: Induction of apoptosis in human HepG2 cells assessed as necrotic cells at 10 uM measured after 24 hrs incubation by Propidium iodide/Annexin V-FITC analysis (reference value: 1.14%); type: functional
HepG2 [22] = test: Suppression of Golgi structural and functional protein expression in human HepG2 cells assessed as decrease in GRASP55 protein expression at 5 to 20 uM measured after 48 hrs incubation by Western blot analysis; type: cell-based; conditions: dose 5-20 µM
HepG2 [23] = test: Induction of apoptosis in human HepG2 cells assessed as late apoptotic cells at 5 uM measured after 24 hrs incubation by Propidium iodide/Annexin V-FITC analysis (reference value: 5.71%); type: functional

Activity (Lipid bilayer [1]): Active
IC50 (HCT-8): > 50 µM
Activity (Lipid bilayer [5]): Active
Activity (Lipid bilayer [6]): Active
IC50 (HepG2 [7]): 7.13 µM
EC50 (HepG2 [17]): 13.8 µM
Structure (SMILES): NS(=O)(=O)c1ccc(NC(=O)CCCCCNc2c(Nc3cc(C(F)(F)F)cc(C(F)(F)F)c3)c(=O)c2=O)cc1
Activity (HepG2 [2]): inactive
Activity (HepG2 [3]): 7.19%
Activity (HepG2 [4]): 12%
Activity (HepG2 [8]): 44.07%
viability at 20 µM (HepG2 [9]): 22.1%
Activity [10]: Non-toxic
inhibition in vivo at 1 mg/kg (HepG2 [11]): 41%
Activity [12]: Non-toxic
Activity [13]: Non-toxic
Activity [14]: Non-toxic
inhibition in vivo at 10 mg/kg (HepG2 [15]): 77%
Activity (HepG2 [16]): 36.5%
Activity (HepG2 [18]): 0.23
viability at 10 µM (HepG2 [19]): 50%
Activity [20]: Non-toxic
Activity (HepG2 [21]): 5.17%
Activity (HepG2 [22]): Active
Activity (HepG2 [23]): 12.9%
